Source: patent US9227923B2, “Pesticidal carboxamides” (Bayer Intellectual Property GmbH, priority 2009, dated 2016)

Experiments:
[1] = test system: Cucurbit Leaf Beetle (Aulacophora Femoralis); experiment: Test against cucurbit leaf beetle (Aulacophora femoralis), leaf dip; format: in vivo; settings: active compound concentration of 100 ppm, second instar larvae, after 7 days
Method: (§1) Solvent: 3 parts by weight of dimethylformamide
(§2) Emulsifier: 1 part by weight of polyoxyethylene alkyl phenyl ether
Leaves of cucumber were immersed in the test solution at the appropriate concentration, and the leaves were dried in air. The leaves were then put in a plastic cup containing sterilized black soil and five Aulacophora femoralis at second instar larvae were released in the cup. The cups were placed in a temperature-controlled chamber at 25° C. After 7 days, the number of dead larvae was counted, and thus the insecticidal activity was calculated. An insecticidal activity of 100% means that all larvae were killed, whereas an insecticidal activity of 0% means that no larva was killed.

[2] = test system: Tobacco Cutworm (Spodoptera litura) Larvae; experiment: Test against tobacco cutworm (Spodoptera litura) larvae, leaf dip; format: in vivo; settings: active compound concentration of 100 ppm, third instar larvae, after 7 days; for pest or weed control at 100 ppm: Spodoptera litura, foliar, 168 h, read-out: insecticidal activity
Method: as §1, §2
Leaves of sweet potato were immersed in the test solution at the appropriate concentration, and the leaves were dried in air. The leaves were then placed in a petri dish having a diameter of 9 cm, and ten Spodoptera litura at third instar larvae were released therein. The petri dishes were placed in a temperature-controlled chamber at 25° C. After 2 days and 4 days more sweet potato leaves were added. After 7 days, the number of dead larvae was counted to calculate the insecticidal activity. An insecticidal activity of 100% means that all larvae were killed, whereas an insecticidal activity of 0% means that no larva was killed.

| SMILES | insecticidal activity [1] [%] | insecticidal activity [2] [%] | pest or weed control at 100 ppm ([1]; Aulacophora, foliar, 168 h, read-out: insecticidal activity) [%] | pest or weed control at 100 ppm [2] [%] |
| --- | --- | --- | --- | --- |
| Cc1cc(C(F)(C(F)(F)F)C(F)(F)F)cc(C)c1NC(=O)c1ccc(-n2cncn2)cc1Cl [Compound 1-5] | 100 | – | – | – |
| CCc1cc(C(F)(C(F)(F)F)C(F)(F)F)cc(C)c1NC(=O)c1ccc(-n2cncn2)c2ccccc12 [Compound 2-2] | 100 | 100 | – | – |
| CCc1cc(C(F)(C(F)(F)F)C(F)(F)F)cc(C)c1NC(=O)c1ccc(-n2cncn2)nc1 [Compound 4-2] | 100 | 100 | – | – |
| Cc1cc(C(F)(C(F)(F)F)C(F)(F)F)cc(C)c1NC(=O)c1ccc(CNC(=O)CC2CC2)cc1 [Compound 5-8] | 100 | 100 | – | – |
| CC(=O)NCc1ccc(C(=O)Nc2c(C)cc(C(F)(C(F)(F)F)C(F)(F)F)cc2C)c(F)c1 [Compound 5-21] | 100 | 100 | – | – |
| CCC(=O)NCc1ccc(C(=O)Nc2c(C)cc(C(F)(C(F)(F)F)C(F)(F)F)cc2C)c(F)c1 [Compound 5-22] | 100 | 100 | – | – |
| CCc1cc(C(F)(C(F)(F)F)C(F)(F)F)cc(C)c1NC(=O)c1ccc(CNC(=O)c2ccccc2F)cc1 [Compound 5-34] | 100 | 100 | – | – |
| CCc1cc(C(F)(C(F)(F)F)C(F)(F)F)cc(C)c1NC(=O)c1ccc(CNC(=O)c2cccc(F)c2)cc1 [Compound 5-35] | 100 | 100 | – | – |
| CCC(=O)NCc1ccc(C(=O)Nc2c(C)cc(C(F)(C(F)(F)F)C(F)(F)F)cc2CC)c(F)c1 [Compound 5-45] | 100 | 100 | – | – |
| CCc1cc(C(F)(C(F)(F)F)C(F)(F)F)cc(C)c1NC(=O)c1ccc(CNC(=O)CC2CC2)cc1F [Compound 5-46] | 100 | 100 | – | – |
| CCc1cc(C(F)(C(F)(F)F)C(F)(F)F)cc(C)c1NC(=O)c1ccc(CNC(C)=O)c(F)c1F [Compound 5-51] | 100 | 100 | – | – |
| CCC(=O)NCc1cc(F)c(C(=O)Nc2c(C)cc(C(F)(C(F)(F)F)C(F)(F)F)cc2CC)cc1F [Compound 5-59] | 100 | 100 | – | – |
| CCc1cc(C(F)(C(F)(F)F)C(F)(F)F)cc(C)c1NC(=O)c1ccc(CNC(C)=O)cc1Cl [Compound 5-65] | 100 | – | – | – |
| CCc1cc(C(F)(C(F)(F)F)C(F)(F)F)cc(C)c1NC(=O)c1ccc(CNC(=O)C2CC2)c(Cl)c1 [Compound 5-79] | 100 | 100 | – | – |
| CCc1cc(C(F)(C(F)(F)F)C(F)(F)F)cc(C)c1NC(=O)c1ccc(CNS(C)(=O)=O)c(Br)c1 [Compound 5-96] | 100 | 100 | – | – |
| CCC(=O)NCc1ccc(C(=O)Nc2c(C)cc(C(F)(C(F)(F)F)C(F)(F)F)cc2CC)cc1C [Compound 5-100] | 100 | 100 | – | – |
| CCC(=O)NCc1ccc(C(=O)Nc2c(C)cc(C(F)(C(F)(F)F)C(F)(F)C(F)(F)F)cc2C)cc1 (centres unmarked) [Compound 5-127] | 100 | – | – | – |
| CCc1cc(C(F)(C(F)(F)F)C(F)(F)C(F)(F)F)cc(C)c1NC(=O)c1ccc(CNC(C)=O)c(F)c1 (centres unmarked) [Compound 5-144] | 100 | 100 | – | – |
| CCC(=O)NCc1ccc(C(=O)Nc2c(C)cc(C(F)(C(F)(F)F)C(F)(F)C(F)(F)F)cc2CC)cc1F (centres unmarked) [Compound 5-145] | 100 | 100 | – | – |
| CCc1cc(C(F)(C(F)(F)F)C(F)(F)C(F)(F)F)cc(C)c1NC(=O)c1ccc(CNC(=O)C2CC2)c(Cl)c1 (centres unmarked) [Compound 5-152] | 100 | 100 | – | – |
| CCc1cc(C(F)(C(F)(F)F)C(F)(F)C(F)(F)F)cc(C)c1NC(=O)c1ccc(CNC(=O)CC(F)(F)F)c(Br)c1 (centres unmarked) [Compound 5-161] | 100 | 100 | – | – |
| CCc1cc(C(F)(C(F)(F)F)C(F)(F)F)cc(C)c1NC(=O)c1ccc(CNC(=O)C[S+](C)[O-])c(Br)c1 (centres unmarked) [Compound 5-177] | 100 | 100 | – | – |
| CCc1cc(C(F)(C(F)(F)F)C(F)(F)F)cc(C)c1NC(=O)c1ccc(CNC(=O)CS(C)(=O)=O)c(Br)c1 [Compound 5-178] | 100 | 100 | – | – |
| CCc1cc(C(F)(C(F)(F)F)C(F)(F)F)cc(C)c1NC(=O)c1cc(F)c(CNC(=O)c2cccnc2Cl)cc1F [Compound 5-183] | 100 | 100 | – | – |

| SMILES | insecticidal activity [1] [%] | insecticidal activity [2] [%] | pest or weed control at 100 ppm ([1]; Aulacophora, foliar, 168 h, read-out: insecticidal activity) [%] | pest or weed control at 100 ppm [2] [%] |
| --- | --- | --- | --- | --- |
| CCc1cc(C(F)(C(F)(F)F)C(F)(F)C(F)(F)F)cc(C)c1NC(=O)c1ccc(CNC(=O)CC(F)(F)F)c(I)c1 (centres unmarked) [Compound 5-198] | 100 | 100 | – | – |
| CCc1cc(C(F)(C(F)(F)F)C(F)(F)C(F)(F)F)cc(C)c1NC(=O)c1ccc(CNC(C)=O)c(F)c1F (centres unmarked) [Compound 5-201] | 100 | 100 | – | – |
| CCC(=O)NCc1ccc(C(=O)Nc2c(C)cc(C(F)(C(F)(F)F)C(F)(F)C(F)(F)F)cc2CC)c(F)c1F (centres unmarked) [Compound 5-202] | 100 | 100 | – | – |
| CCc1cc(C(F)(C(F)(F)F)C(F)(F)C(F)(F)F)cc(C)c1NC(=O)c1ccc(CNC(=O)C2CC2)c(F)c1F (centres unmarked) [Compound 5-203] | 100 | 100 | – | – |
| CCc1cc(C(F)(C(F)(F)F)C(F)(F)C(F)(F)F)cc(C)c1NC(=O)c1ccc(CNC(=O)CC2CC2)c(F)c1F (centres unmarked) [Compound 5-204] | 100 | 100 | – | – |
| CCc1cc(C(F)(C(F)(F)F)C(F)(F)C(F)(F)F)cc(C)c1NC(=O)c1ccc(CNC(=O)CC(F)(F)F)c(F)c1F (centres unmarked) [Compound 5-205] | 100 | 100 | – | – |
| CCc1cc(C(F)(C(F)(F)F)C(F)(F)C(F)(F)F)cc(C)c1NC(=O)c1ccc(CNC(=O)c2cccnc2Cl)c(F)c1F (centres unmarked) [Compound 5-206] | 100 | 100 | – | – |
| CC(=O)NCc1ccc(C(=O)Nc2c(C)cc(C(F)(C(F)(F)F)C(F)(F)C(F)(F)F)cc2C)cc1Br (centres unmarked) [Compound 5-211] | 100 | 100 | – | – |
| CCC(=O)NCc1ccc(C(=O)Nc2c(C)cc(C(F)(C(F)(F)F)C(F)(F)C(F)(F)F)cc2C)cc1Br (centres unmarked) [Compound 5-212] | 100 | 100 | – | – |
| O=C(CC(F)(F)F)NCc1ccc(C(=O)Nc2c(Cl)cc(C(F)(C(F)(F)F)C(F)(F)F)cc2Cl)cc1 [Compound 5-226] | 100 | – | – | – |
| CC(=O)NCc1ccc(C(=O)Nc2c(Cl)cc(C(F)(C(F)(F)F)C(F)(F)F)cc2Cl)cc1Cl [Compound 5-229, 4-(acetamidemethyl)-3-chloro-N-[2,6-dichloro-4-(1,1,1,2,3,3,3-heptafluoropropan-2-yl)phenyl]benzamide] | – | – | 100 | 100 |
| O=C(Nc1c(Cl)cc(C(F)(C(F)(F)F)C(F)(F)F)cc1Cl)c1ccc(CNC(=O)C2CC2)c(Cl)c1 [Compound 5-231] | 100 | 100 | – | – |
| CCC(=O)NCc1ccc(C(=O)Nc2c(Cl)cc(C(F)(C(F)(F)F)C(F)(F)C(F)(F)F)cc2Cl)cc1 (centres unmarked) [Compound 5-323] | 100 | 100 | – | – |
| O=C(CC(F)(F)F)NCc1ccc(C(=O)Nc2c(Cl)cc(C(F)(C(F)(F)F)C(F)(F)C(F)(F)F)cc2Cl)cc1 (centres unmarked) [Compound 5-324] | 100 | 100 | – | – |
| O=C(Nc1c(Cl)cc(C(F)(C(F)(F)F)C(F)(F)C(F)(F)F)cc1Cl)c1ccc(CNC(=O)C2CC2)cc1 (centres unmarked) [Compound 5-326] | 100 | 100 | – | – |
| CCc1cc(C(F)(C(F)(F)F)C(F)(F)F)cc(C)c1NC(=O)c1ccc(CNC(=O)CC(F)(F)F)c2ccccc12 [Compound 6-6] | 100 | 100 | – | – |
| CCC(=O)NCc1cc(C(=O)Nc2c(C)cc(C(F)(C(F)(F)F)C(F)(F)F)cc2CC)ccc1-n1cncn1 [Compound 12-4] | – | 100 | – | – |
| CCc1cc(C(F)(C(F)(F)F)C(F)(F)F)cc(C)c1NC(=O)c1ccc(-n2cncn2)c(CNC(=O)OC)c1 [Compound 12-5] | – | 100 | – | – |
| O=C(Nc1c(Cl)cc(C(F)(C(F)(F)F)C(F)(F)F)cc1Cl)c1ccc(I)c(Cl)c1 [Compound A-7, 3-chloro-N-[2,6-dichloro-4-(1,1,1,2,3,3,3-heptafluoropropan-2-yl)phenyl]-4-iodobenzamide] | – | – | – | 100 |
| CCc1cc(C(F)(C(F)(F)F)C(F)(F)F)cc(C)c1NC(=O)c1ccc(C#N)cc1 [Compound I-2] | – | 100 | – | – |
| CCc1cc(C(F)(C(F)(F)F)C(F)(F)F)cc(C)c1NC(=O)c1ccc(C#N)cc1F [Compound I-3] | – | 100 | – | – |
| Cc1cc(C#N)ccc1C(=O)Nc1c(Cl)cc(C(F)(C(F)(F)F)C(F)(F)F)cc1Cl [Compound I-25] | – | 100 | – | – |
| Cc1cc(C(F)(C(F)(F)F)C(F)(F)F)cc(Cl)c1NC(=O)c1ccc(C#N)cc1 [Compound I-28] | – | 100 | – | – |
